Laboratory results taken from US11844801B2, “Oral compositions of MK2 pathway inhibitor for treatment of immune conditions” (priority 2020, dated 2023).

Legend:
IL-1β = assay: R848 stimulated IL-1β production in human whole blood; assay type: cell-based; settings: R848, 0.5 ug/mL, 5 hr
Method: (§1) Human whole blood assays were performed as described above with the exceptions listed below. […] Compounds were serially diluted in 100% DMSO (Sigma-Aldrich, D2650) followed by a 10× dilution into RPMI (Gibco, 11875). After the one-hour incubation with the compounds or vehicle, 2 μL of R848 (InvivoGen, tlrl-r848) in RPMI (Gibco, 11875) was added for a final concentration of 0.5 μg/mL to each well except for the no stimulus wells. After five hours of incubation with R848, plasma was harvested and assayed for TNF-α, IL-1β, IL-6 and IL-8 using Meso Scale Discovery Technology V-plex human cytokine kits according to the kit protocol.

TNF-α [1] = assay: TLR2 ligand (Pam3) or LPS induced TNF-α in peripheral blood mononuclear cells; assay type: cell-based; settings: 10-10,000 nM
Method: LPS or Pam3 were then added to the designated wells for a final concentration of 100 ng/mL for both (or medium for unstimulated control). After 30 min MSU was added to the designated wells for final concentration of 100 μg/mL (or medium for no-MSU control). After a 6-hour incubation, plates were centrifuged at 500×g for 5 min, and medium was collected from each well for assay. Released TNF-α was measured using Meso Scale Discovery technology, an ELISA-like format with capture and detection antibodies, but with a final readout using electrochemiluminescence.

TNF-α [2] = assay: Mouse neutrophil (mPMN) IL-1α stimulated TNF-α; assay type: cell-based
Method: Biosynthesis of […] was quantified using MSD technology. […] Cells and compound were stimulated with mouse IL-1α to a final concentration of 10 ng/mL and incubated for 4 hours at 37° C. Supernatants were collected and TNF-α levels quantitated using MSD technology.

[3] = cited from earlier work
IL-6 [4] = assay: Rat whole blood LPS stimulated IL-6; assay type: cell-based; settings: 100 ng/mL, 4 hr
[5] = test system: TNF-α, IL-1β, IL-6 and IL-8; assay: R848 (TLR7/TLR8) stimulated cytokines and chemokines in human whole blood; assay type: cell-based; settings: 5 h, R848 0.5 μg/mL, five hours
Method: as §1

clinical = settings: male, human, in vivo
IL-6 [6] = assay: LPS stimulated IL-6 production in human whole blood; assay type: cell-based
Method: Compounds were serially diluted in 100% DMSO (Sigma-Aldrich, D2650) followed by a 50× dilution into DMEM/10% FBS (Gibco, 11965/26140). Vehicle consisted of DMSO at a final assay concentration of 0.1%. Pin tools (V&P Scientific, Inc., VP246) were placed in the wells and the plate was placed at 37° C. with 5% CO2, with gently shaking for five minutes, then pin tools were removed and saved. […] Pin tools were placed in the wells in the same orientation as the previous step and gently shook for five minutes at 37° C. with 5% CO2, then removed. […] The plasma was harvested and assayed for TNF-α, IL-1β, and IL-6 using Meso Scale Discovery Technology V-plex human cytokine kits according to the kit protocol. The kit plates were read using an MSD Sector S 6000 instrument. Calculations to establish cytokine calibration curves and to determine analyte concentrations in the samples were carried out using the MSD DISCOVERY WORKBENCH® analysis software.

**Q.** For `Cc1cnc(-c2ccnc(C(C)(C)O)n2)cc1-n1c(C)cc(OCc2ncc(F)cc2F)c(Cl)c1=O` (single isomer, unassigned) [ATI-450, 3-chloro-4-((3,5-difluoropyridin-2-yl)methoxy)-2′-(2-(2-hydroxypropan-2-yl)pyrimidin-4-yl)-5′,6-dimethyl-2H-[1,4′-bipyridin]-2-one], which IC50 (IL-1β) is on record?
**A.** 95.6 ± 34.8 nM

**Q.** What about the “TLR2 ligand induced TNF-α production” value (TNF-α [1]) of the same compound?
**A.** dose dependently inhibits

**Q.** And the IC50 (TNF-α [2]; Mus musculus, Neutrophil, mPMN, IL-1α, 10 ng/mL, 4 hr)?
**A.** 5 nM

**Q.** What about the “IL-1α mediated TNF-α signaling in neutrophils” value (TNF-α [2]; mouse IL-1α 10 ng/mL, 4 hours) of the same compound?
**A.** dose dependently inhibits

**Q.** What about the “bone marrow IL-1β in murine NOMID model” value ([3]; relative to placebo) of the same compound?
**A.** reduction in bone marrow levels of IL-1β

**Q.** What about the “effect on disease in murine NOMID model” value ([3]; transgenic animal model) of the same compound?
**A.** dramatic attenuation of disease

**Q.** And the IC50 (IL-6 [4])?
**A.** 28.3 ± 1.2 nM

**Q.** What about the IC50 [5] of the same compound?
**A.** ~100 nM

**Q.** What about the Tmax (clinical) of the same compound?
**A.** 2 h

**Q.** What about the IC50 (IL-6 [6]; Human Whole Blood, LPS, 100 ng/mL, 4 or 24 hr, read-out: IC50, IL-6) of the same compound?
**A.** 135 ± 97 nM

**Q.** And the IC50 (IL-6 [6]; human whole blood, LPS 100 ng/mL, read-out: IC50, LPS-stimulated IL-6)?
**A.** 10 to 100 nM
